Measured values taken from patent publication US5371284A, “Phenyl acetylenic acetals” (Schering Corporation, priority 1993, dated 1994).

System: LTC4-induced contractions of guinea pig lung parenchyma
Experiment: Inhibition of LTC4-induced contractions of guinea pig lung parenchyma strips
Parameters: species or system guinea pig (male Hartley)
Settings: test compound at 10)M (so in the source); 1×10^-8 M LTC4, compound added 5 min before challenge; footnote c = statistically significant (p = 0.05), Student's t test
Experimental: The anti-allergy method of this invention is shown by tests which measure a compound's inhibition of contractile responses of strips of lung parenchyma. Male Hartley guinea pigs (600-800 g body weight) were killed by a blow to the head and then exsanguinated. The lungs were inflated with 5 ml. of air through the trachea, the chest cavity opened, and the lungs perfused in situ through the pulmonary artery with Tyrode's solution. The lower lobe of each lung was excised and dissected into four strips (3×10 mm), each of which was suspended in a constant temperature (37° C.) organ bath containing 10 mL of Tyrode's solution and aerated with 95% O2 -5% CO2. Each lung strip was attached to a Harvard isometric muscle transducer and tension was recorded with a Harvard recording module. The initial tension was adjusted to 2 g and the tissues allowed to equilibrate until a steady baseline was reached. […] The peak contractile response to LTC4 was recorded and expressed as a percent of the maximum response (obtained with 1×10^-4 M histamine) of that lung strip. The effect of each test compound is expressed as percent inhibition of the contractile response calculated as follows: [formula]

CCCc1c(OCC(O)COc2ccc3c(=O)cc(C(=O)O)oc3c2CCC)ccc(C(C)=O)c1O (stereo not shown) [FPL 55712]
% Inhibition of LTC4-induced contractions of guinea pig lung parenchyma: 99%
